Source: patent US20010043936A1, “CHEMICAL COMPOSITION” (priority 1997, published 2001)

Tests used:
Mixed Fungi = assay: Inoculation test of preserved cream formulation with mixed fungi, surviving organisms counted; assay type: cell-based; conditions: control: IPBC 25 ppm, PhOH 0 ppm in cream
Method: A batch of a cream formulation comprising an oil-in-water emulsion containing 7.5 wt % Crodex A (an emulsifying wax ex-Croda Chemicals), 5.0 wt % propylene glycol and 87.5 wt % sterile water was prepared using a homogenising mixer.
Portions of the cream formulation were admixed with a preservative system comprising iodopropynyl butyl carbamate and phenoxyethanol at varying weight ratios of iodopropynyl butyl carbamate to phenoxyethanol. In each case the content of the iodopropynyl butyl carbamate in the cream formulation was kept constant at a level of 0.0025 wt % with respect of the total weight of the formulation.
Each portion of the formulation was divided into two. One specimen was inoculated with 7.5×10^7 mixed bacteria per g of cream. The other specimen was inoculated with 2.4×10^6 mixed fungi per g of cream.
For each specimen the number of surviving organisms was determined at 0 hours, […] and 72 hours after inoculation.

Mixed Bacteria = assay: Inoculation test of preserved cream formulation with mixed bacteria, surviving organisms counted; assay type: cell-based; conditions: control: IPBC 25 ppm, PhOH 0 ppm in cream

With iodopropynyl butyl carbamate [IPBC] the “organisms surviving, Mixed Fungi, 0 Hours” value (Mixed Fungi; 0 Hours) was 8 × 10^5, the “organisms surviving, Mixed Fungi, 24 Hours” value (Mixed Fungi; 24 Hours) was 1.2 × 10^5 and the “organisms surviving, Mixed Fungi, 72 Hours” value (Mixed Fungi; 72 Hours) was 5.2 × 10^4. The “organisms surviving, Mixed Bacteria, 0 Hours” value (Mixed Bacteria; 0 Hours) was “TNTC”, the “organisms surviving, Mixed Bacteria, 24 Hours” value (Mixed Bacteria; 24 Hours) was 1.8 × 10^6 and the “organisms surviving, Mixed Bacteria, 72 Hours” value (Mixed Bacteria; 72 Hours) was 2.9 × 10^5.
